Data reported in US20210069151A1, “[…] PHARMACEUTICAL COMBINATION OF THE ACTIVE ENANTIOMER S-KETOROLAC TR[…] TRAMADOL CHLORHYDRATE” (priority 2018, published 2021).
“Also recorded” adds a separate entry of the source.

Key:
[1] = test system: uric acid-induced gouty arthritis pain in the rat; assay: pain-induced functional impairment model in the rat (PIFIR), antinociceptive effects; assay type: in vivo, male Wistar rats; conditions: for Maximum efficacy (ABC: X ± E.E.): ABC of the FI % temporal curve over 4 h, at the dose that generates the maximum efficacy (S-ketorolac tromethamine 3.16 mg/kg, tramadol chlorhydrate 56.23 mg/kg); for Relative efficacy: compared to S-ketorolac tromethamine (= 1.0); for antinociceptive effects, dose dependence: single acute oral administration, evaluated for 4 hours, tramadol 5.6 to 56.2 mg/kg, S-ketorolac tromethamine 0.01 to 3.16 mg/kg
Text: In order to determine the antinociceptive effects, male Wistar rats weighing between 180 and 200 g were employed. These were handled in accordance with the Official Mexican Norm (NOM-062-ZOO-1999) and in accordance with the general principles of lab animal care (NIH publication #85-23, revised in 1985). The minimum number of test animals were used (6 animals per experimental point for antinociceptive effects, motor coordination, and gastrointestinal damage, and 10 animals per experimental point for adverse effects: lethal dose 50). The animals were kept in a room with alternate cycles of light/darkness. Twelve hours before the antinociceptive tests, the food was withdrawn, and they only had free access to water. All of these experiments were conducted during the light phase.
The analgesics were dissolved or suspended in carboxymethyl cellulose at 0.5% and administered orally in a volume of 4 ml/kg.
This methodology is commonly known as “pain-induced functional impairment model in the rat” (PIFIR). This methodology was used to determine and compare the antinociceptive effects of these analgesics.
The methodology of the PIFIR experimental procedure is briefly described below: The animals were anesthetized in an anesthesia chamber saturated with isoflurane vapors. The gouty arthritis was induced by applying an intra-articular injection (i.art.) with 0.05 ml of uric acid suspended in mineral oil (at 30%) in the right hind limb, exactly in the femur-tibia-patella joint.
A 1 ml glass syringe with a No. 22, 4 mm long needle was used for the i.art. injection. Immediately afterward, an electrode was fixed on each hind limb in the middle of the plantar calluses. After the rats recovered from the anesthesia, they were placed in a 30 cm diameter stainless steel rotating cylinder. The cylinder was rotated at 4 rpm, forcing the rats to walk for 2 minutes every half hour for a total of 6.5 hours (2.5 h to generate the gouty arthritis and 4 h to evaluate the antinociceptive effects of the analgesics). The variable measured was the time of contact of each one of the hind limbs of the rats in the cylinder.
When the electrode and the cylinder make contact, a circuit closes, and the relationship between the time of contact of the extremity to which the uric acid was administered as compared to the one to which uric acid was not administered was registered in a computer. The percentage functionality indexes (FI %) are calculated with these variables. Once the total dysfunction (FI=0%) was produced due to the effect of the uric acid, the corresponding doses of each analgesic were administered individually or in combination.
The medium and standard error of the evaluation of the antinociceptive effects are presented in all of the graphics as from time “0,” which is the moment at which the arthritis is completely developed in the rat and is the precise moment of the administration of tramadol chlorhydrate and S-ketorolac tromethamine.
With the administration of these doses, the complete doses-responses of S-ketorolac tromethamine and tramadol chlorhydrate were plotted separately in order to perform a comparative analysis for efficacy and potency. In the case of tramadol chlorhydrate, the curves were obtained through a single and acute 4-hour administration in doses with algorithmic increases (of 5.6 to 56.2 mg/kg), (FIG. 1). The S-ketorolac tromethamine temporal curves were obtained through acute administration evaluated for 4 hours in doses with algorithmic increases (from 0.01 to 3.16 mg/kg).
After this, 24 different combinations of S-ketorolac tromethamine and tramadol chlorhydrate were analyzed in order to detect the type of interaction and the most significant combinations due to the degree of efficacy or the degree of antinociceptive potency.

[2] = background statement, cited from earlier work
[3] = pharmacological / analgesic potency relative to comparators (no method given); assay type: in vivo

With `COc1cccc([C@@]2(O)CCCC[C@@H]2CN(C)C)c1.Cl` (relative stereo) [Tramadol chlorhydrate, (1R,2R)-rel-2-[(dimethylamino)methyl]-1-(3-methoxyphenyl)cyclohexanol] the “Maximum efficacy (ABC: X ± E.E.)” value ([1]; po) was 216.7 ± 19.1 au, the “Maximum efficacy (ABC: X ± E.E.)” value ([1]; po, listed as tramadol chlorhydrate) was 216.66 au and the “efficacy relative to that exhibited by S-ketorolac tromethamine” value ([1]; PIFIR, po) was 70%. For the same compound, the Relative efficacy ([1]; PIFIR, po) was 0.70 and the “antinociceptive effects, dose dependence” value [1] was “doses-dependent antinociceptive effects; also recorded: antinociceptive effects that are dependent on the gouty arthritis-type pain dose”.
In the case of `O=C(c1ccccc1)c1ccc2n1CC[C@@H]2C(=O)O` [S-ketorolac tromethamine, 2-amino-2-hydroximethyl-1,3 propanediol (1:1) S-(−)-5-benzoyl-2,3-dihydro-1H-pyrrolizine-1-carboxylate], the “potency ratio of the S (−) enantiomer” value ([2]; comparator not clearly printed) is listed as “approximately 60 times”, the “analgesic effect relative to the racemic form” value [2] is listed as “almost double that of the racemic form” and the “potency relative to AA” value ([3]; times more potent than AA) is listed as 1037 times. For the same compound, the “potency relative to morphine” value ([3]; times more potent than morphine) was 82 times, the “potency relative to rac-ketorolac” value ([3]; times more potent than rac-ketorolac) was 3.3 times and the “Maximum efficacy (ABC: X ± E.E.)” value ([1]; po) was 310.5 ± 13.5 au. The Relative efficacy ([1]; PIFIR, po) was 1.0 and the “antinociceptive effects, dose dependence” value [1] was “doses-dependent antinociceptive effects; also recorded: antinociceptive effects that are dependent on the gouty arthritis-type pain dose”.
